Results reported in patent EP0811615A1, “1-Aryl-5-(substituted alkyl (thio) amido) pyrazoles and their use as pesticides” (RHONE-POULENC AGROCHIMIE, priority 1996, dated 1997).
Where two headings read alike, the source gives them in different places.

Key:
Assay type in all cases: in vivo
southern armyworm = assay: Southern armyworm foliar spray test on bean plants; details: Spodoptera eridania, 120 h, read-out: pest mortality SAW
Method: (§1) For mite, aphid, southern armyworm, Mexican bean beetle, and tobacco budworm tests, a solution or suspension was prepared by adding 10 mg of the test compound to a solution of 160 mg of dimethylformamide, 838 mg of acetone, 2 mg of a 3:1 ratio of Triton X-172 : Triton X-152 (respectively, mainly anionic and nonionic low foam emulsifiers which are each anhydrous blends of alkylaryl polyether alcohols with organic sulfonates), and […] of water. The result was a concentration of 100 ppm of the test compound.
(§2) Southern armyworm: Potted bean plants, were placed on a revolving turntable and sprayed with 100 ml of the 100 ppm test compound formulation by use of a DeVilbiss spray gun set at 40 psig air pressure. As an untreated control, 100 ml of a water-acetone-DMF-emulsifier solution, containing no test compound, were also sprayed on plants. A treated control with a commercial technical compound, either cypermethrin or sulprofos, formulated in the same manner, was tested as a standard. When dry, the leaves were placed in plastic cups lined with moistened filter paper. Five randomly selected second instar southern armyworm larvae were introduced into each cup which was closed and held for five days. Larvae which were unable to move the length of the body, even upon stimulation by prodding, were considered dead.

housefly = assay: House fly bait test; details: Musca domestica, read-out: pest mortality HF
Source text: For housefly tests, the formulation was initially prepared in a similar manner to the above, but in 16.3 g of water with corresponding adjustment of other components, providing a 200 ppm concentration. Final dilution with an equal volume of a 20% by weight aqueous solution of sucrose provided a 100 ppm concentration of the test compound. When necessary, sonication was provided to insure complete dispersion.
House fly: Four to six day old adult house flies were reared according to the specifications of the Chemical Specialties Manufacturing Association (Blue Book, McNair-Dorland Co., N.Y. 1954; pages 243-244, 261) under controlled conditions. The flies were immobilized by anesthetizing with carbon dioxide and twenty five immobilized individuals, males and females, were transferred to a cage consisting of a standard food strainer and a wrapping-paper-covered surface. Ten ml of the 100 ppm test compound formulation were added to a soufflé cup containing an absorbent cotton pad. As an untreated control, 10 ml of a water-acetone-DMF-emulsifier-sucrose solution, containing no test compound, were applied in a similar manner. A treated control with a commercial technical compound, malathion, formulated in the same manner, was tested as a standard. The bait cup was introduced inside the food strainer prior to admitting the anesthetized flies.

tobacco budworm = assay: Tobacco budworm foliar spray test on cotton plants; details: Heliothis virescens, 120 h, read-out: pest mortality TBW
Method: as §1
Tobacco budworm: Potted cotton plants were placed on a revolving turntable and sprayed with 100 ml of the 100 ppm test compound formulation by use of a DeVilbiss spray gun set at 40 psig air pressure. As an untreated control, 100 ml of a water-acetone-DMF-emulsifier solution, containing no test compound, were also sprayed on plants. A treated control with a commercial technical compound, either cypermethrin or sulprofos, formulated in the same manner, was tested as a standard. When dry, the leaves were placed in plastic dishes containing a piece of filter paper and a moistened dental wick. One randomly selected second instar tobacco budworm larva was then introduced into each cup which was closed and held for five days. Larvae unable to move the length of their body, even upon stimulation by prodding, were considered dead.

Mexican bean beetle = Mexican bean beetle foliar spray test on bean plants; details: Epilachna varivestis, 120 h, read-out: pest mortality MBB
Method: as §1
as §2, with “Mexican bean beetle:” for “Southern armyworm:”, “plants” for “plants,”, “formulation, sufficient to wet the plants to runoff,” for “formulation”, “Mexican bean beetle” for “southern armyworm”

[1] = foliar application at 100 ppm, second instar larvae, held five days
[2] = bait application at 100 ppm, adult flies, after 24 hours

Molecule `C#CCN(C(=O)COC)c1c(SC(F)(F)F)c(C#N)nn1-c1c(Cl)cc(OC(F)(F)F)cc1Cl` [Compound 48] has a mortality at 100 ppm (southern armyworm; [1]) of 70 to 100%, a mortality at 100 ppm (housefly; [2]) of 70 to 100% and a mortality at 100 ppm (tobacco budworm; [1]) of 70 to 100%.
`COCCOCC(=O)Nc1c(SC(F)(F)F)c(C#N)nn1-c1c(Cl)cc(C(F)(F)F)cc1Cl` [Compound 3] was tested, and the mortality at 100 ppm (southern armyworm; [1]) was 70 to 100%, the mortality at 100 ppm (housefly; [2]) was 70 to 100% and the mortality at 100 ppm (tobacco budworm; [1]) was 70 to 100%. The mortality at 100 ppm (Mexican bean beetle; [1]) was 70 to 100%.
Work on `COCC(=O)Nc1c([N+](=O)[O-])c(Br)nn1-c1c(Cl)cc(C(F)(F)F)cc1Cl` [Compound 49] yielded a mortality at 100 ppm (southern armyworm; [1]) of 70 to 100% and a mortality at 100 ppm (tobacco budworm; [1]) of 70 to 100%.
In the case of `COCC(=O)Nc1c(SC(F)(F)F)c(C#N)nn1-c1c(Cl)cc(C(F)(F)F)cc1Cl` [Compound 1, 1-(2,6-dichloro-4-trifluoromethylphenyl)-3-cyano-4-trifluoromethylsulfenyl-5-(methoxyacetamido)pyrazole], the mortality at 100 ppm (southern armyworm; foliar) is reported as 70 to 100%, the mortality at 100 ppm (housefly; 24 h) is reported as 70 to 100% and the mortality at 100 ppm (tobacco budworm; foliar) is reported as 70 to 100%. It also gave a mortality at 100 ppm (Mexican bean beetle; foliar) of 70 to 100%.
`COC(C(=O)Nc1c(SC(F)(F)F)c(C#N)nn1-c1c(Cl)cc(C(F)(F)F)cc1Cl)C(C)C` (stereo not shown) [Compound 23] showed a mortality at 100 ppm (southern armyworm; [1]) of 70 to 100% and a mortality at 100 ppm (tobacco budworm; [1]) of 70 to 100%.
`COCCOCCOCC(=O)Nc1c([S+]([O-])C(F)(F)F)c(C#N)nn1-c1c(Cl)cc(C(F)(F)F)cc1Cl` (stereo not shown) [Compound 10] was tested, and the mortality at 100 ppm (southern armyworm; [1]) was 70 to 100%.
`COC(C)C(=O)Nc1c(SC(F)(Cl)Cl)c(C#N)nn1-c1c(Cl)cc(C(F)(F)F)cc1Cl` (stereo not shown) [Compound 26] gave a mortality at 100 ppm (southern armyworm; [1]) of 70 to 100%, a mortality at 100 ppm (housefly; [2]) of 70 to 100% and a mortality at 100 ppm (tobacco budworm; [1]) of 70 to 100%.
In the case of `COCCOCC(=O)Nc1c(SC(F)(Cl)Cl)c(C#N)nn1-c1c(Cl)cc(C(F)(F)F)cc1Cl` [Compound 16], the mortality at 100 ppm (southern armyworm; [1]) is reported as 70 to 100%, the mortality at 100 ppm (housefly; [2]) is reported as 70 to 100% and the mortality at 100 ppm (tobacco budworm; [1]) is reported as 70 to 100%.
Molecule `CCCCOCC(=O)Nc1c(SC(F)(F)F)c(C#N)nn1-c1c(Cl)cc(C(F)(F)F)cc1Cl` [Compound 6] has a mortality at 100 ppm (southern armyworm; [1]) of 70 to 100%, a mortality at 100 ppm (housefly; [2]) of 70 to 100% and a mortality at 100 ppm (tobacco budworm; [1]) of 70 to 100%.
Work on `COC(=O)CCC(=O)Nc1c(SC(F)(F)F)c(C#N)nn1-c1c(Cl)cc(C(F)(F)F)cc1Cl` [Compound 5] yielded a mortality at 100 ppm (southern armyworm; [1]) of 70 to 100%, a mortality at 100 ppm (housefly; [2]) of 70 to 100% and a mortality at 100 ppm (tobacco budworm; [1]) of 70 to 100%.
For `CCCCCCCCCCCCOCC(=O)Nc1c(SC(F)(F)F)c(C#N)nn1-c1c(Cl)cc(C(F)(F)F)cc1Cl` [Compound 36], the mortality at 100 ppm (housefly; [2]) was 70 to 100%.
Molecule `CCOC(C)C(=O)Nc1c(SC(F)(Cl)Cl)c(C#N)nn1-c1c(Cl)cc(C(F)(F)F)cc1Cl` (stereo not shown) [Compound 45] has a mortality at 100 ppm (southern armyworm; [1]) of 70 to 100%, a mortality at 100 ppm (housefly; [2]) of 70 to 100% and a mortality at 100 ppm (tobacco budworm; [1]) of 70 to 100%. The mortality at 100 ppm (Mexican bean beetle; [1]) was 70 to 100%.
`CCCCCCOCC(=O)Nc1c(SC(F)(F)F)c(C#N)nn1-c1c(Cl)cc(C(F)(F)F)cc1Cl` [Compound 33] was tested, and the mortality at 100 ppm (tobacco budworm; [1]) was 70 to 100%.
`CC(C)COCC(=O)Nc1c(SC(F)(F)F)c(C#N)nn1-c1c(Cl)cc(C(F)(F)F)cc1Cl` [Compound 35] was tested, and the mortality at 100 ppm (southern armyworm; [1]) was 70 to 100%, the mortality at 100 ppm (housefly; [2]) was 70 to 100% and the mortality at 100 ppm (Mexican bean beetle; [1]) was 70 to 100%.
`CCC(OC)C(=O)Nc1c(SC(F)(F)F)c(C#N)nn1-c1c(Cl)cc(C(F)(F)F)cc1Cl` (stereo not shown) [Compound 38] gave a mortality at 100 ppm (southern armyworm; [1]) of 70 to 100%, a mortality at 100 ppm (housefly; [2]) of 70 to 100% and a mortality at 100 ppm (tobacco budworm; [1]) of 70 to 100%.
`CC(C)OCC(=O)Nc1c(SC(F)(F)F)c(C#N)nn1-c1c(Cl)cc(C(F)(F)F)cc1Cl` [Compound 20] was tested, and the mortality at 100 ppm (southern armyworm; [1]) was 70 to 100%, the mortality at 100 ppm (housefly; [2]) was 70 to 100% and the mortality at 100 ppm (tobacco budworm; [1]) was 70 to 100%. The mortality at 100 ppm (Mexican bean beetle; [1]) was 70 to 100%.
`CCCC(OCC)C(=O)Nc1c(SC(F)(F)F)c(C#N)nn1-c1c(Cl)cc(C(F)(F)F)cc1Cl` (stereo not shown) [Compound 41] showed a mortality at 100 ppm (southern armyworm; [1]) of 70 to 100% and a mortality at 100 ppm (housefly; [2]) of 70 to 100%.
`COC(C(=O)Nc1c(SC(F)(Cl)Cl)c(C#N)nn1-c1c(Cl)cc(C(F)(F)F)cc1Cl)C(C)C` (stereo not shown) [Compound 27] gave a mortality at 100 ppm (southern armyworm; [1]) of 70 to 100% and a mortality at 100 ppm (tobacco budworm; [1]) of 70 to 100%.
In the case of `COC(C)(C)C(=O)Nc1c(SC(F)(F)F)c(C#N)nn1-c1c(Cl)cc(C(F)(F)F)cc1Cl` [Compound 30], the mortality at 100 ppm (southern armyworm; [1]) is reported as 70 to 100% and the mortality at 100 ppm (tobacco budworm; [1]) is reported as 70 to 100%.
`COC(C(=O)Nc1c([S+]([O-])C(F)(Cl)Cl)c(C#N)nn1-c1c(Cl)cc(C(F)(F)F)cc1Cl)C(C)C` (stereo not shown) [Compound 29] showed a mortality at 100 ppm (southern armyworm; [1]) of 70 to 100% and a mortality at 100 ppm (Mexican bean beetle; [1]) of 70 to 100%.
`COC(C)C(=O)Nc1c(SC(F)(F)F)c(C#N)nn1-c1c(Cl)cc(C(F)(F)F)cc1Cl` (stereo not shown) [Compound 21] showed a mortality at 100 ppm (southern armyworm; [1]) of 70 to 100%, a mortality at 100 ppm (housefly; [2]) of 70 to 100% and a mortality at 100 ppm (tobacco budworm; [1]) of 70 to 100%.
`CCC(OC)C(=O)Nc1c(SC(F)(Cl)Cl)c(C#N)nn1-c1c(Cl)cc(C(F)(F)F)cc1Cl` (stereo not shown) [Compound 37] was tested, and the mortality at 100 ppm (southern armyworm; [1]) was 70 to 100%, the mortality at 100 ppm (housefly; [2]) was 70 to 100% and the mortality at 100 ppm (tobacco budworm; [1]) was 70 to 100%.
Work on `CC(C)COC(C)C(=O)Nc1c(SC(F)(F)F)c(C#N)nn1-c1c(Cl)cc(C(F)(F)F)cc1Cl` (stereo not shown) [Compound 43] yielded a mortality at 100 ppm (southern armyworm; [1]) of 70 to 100%, a mortality at 100 ppm (housefly; [2]) of 70 to 100% and a mortality at 100 ppm (tobacco budworm; [1]) of 70 to 100%.
For `COCC(=O)Nc1c([S+]([O-])C(F)F)c(C#N)nn1-c1c(Cl)cc(C(F)(F)F)cc1Cl` (stereo not shown) [Compound 19], the mortality at 100 ppm (southern armyworm; [1]) was 70 to 100% and the mortality at 100 ppm (housefly; [2]) was 70 to 100%.
Work on `CCOCC(=O)Nc1c(SC(F)(Cl)Cl)c(C#N)nn1-c1c(Cl)cc(C(F)(F)F)cc1Cl` [Compound 15] yielded a mortality at 100 ppm (southern armyworm; [1]) of 70 to 100%, a mortality at 100 ppm (housefly; [2]) of 70 to 100% and a mortality at 100 ppm (tobacco budworm; [1]) of 70 to 100%.
`CCOC(CC)C(=O)Nc1c(SC(F)(F)F)c(C#N)nn1-c1c(Cl)cc(C(F)(F)F)cc1Cl` (stereo not shown) [Compound 40] showed a mortality at 100 ppm (southern armyworm; [1]) of 70 to 100% and a mortality at 100 ppm (housefly; [2]) of 70 to 100%.
Work on `CC(C)COC(C)C(=O)Nc1c([S+]([O-])C(F)(F)F)c(C#N)nn1-c1c(Cl)cc(C(F)(F)F)cc1Cl` (stereo not shown) [Compound 44] yielded a mortality at 100 ppm (southern armyworm; [1]) of 70 to 100%, a mortality at 100 ppm (housefly; [2]) of 70 to 100% and a mortality at 100 ppm (Mexican bean beetle; [1]) of 70 to 100%.
`COCC(=O)Nc1c(SC(F)(Cl)Cl)c(C#N)nn1-c1c(Cl)cc(C(F)(F)F)cc1Cl` [Compound 14] was tested, and the mortality at 100 ppm (southern armyworm; [1]) was 70 to 100%, the mortality at 100 ppm (housefly; [2]) was 70 to 100% and the mortality at 100 ppm (tobacco budworm; [1]) was 70 to 100%.
In the case of `COC(C)(C)C(=O)Nc1c(SC(F)(Cl)Cl)c(C#N)nn1-c1c(Cl)cc(C(F)(F)F)cc1Cl` [Compound 31], the mortality at 100 ppm (southern armyworm; [1]) is reported as 70 to 100% and the mortality at 100 ppm (tobacco budworm; [1]) is reported as 70 to 100%.
`COCCOCCOCC(=O)Nc1c(SC(F)(F)F)c(C#N)nn1-c1c(Cl)cc(C(F)(F)F)cc1Cl` [Compound 4] was tested, and the mortality at 100 ppm (southern armyworm; [1]) was 70 to 100%, the mortality at 100 ppm (housefly; [2]) was 70 to 100% and the mortality at 100 ppm (tobacco budworm; [1]) was 70 to 100%.
